Test results reported in patent US9522120B2, “Compositions and methods of making sustained release liquid formulations” (NEOS THERAPEUTICS, LP, priority 2005, dated 2016).

Columns and labels:
[1] = water and alcohol; cited from earlier work
[2] = Dissolution of phenylephrine sustained release coated beads; format: physicochemical; conditions: when combined with Gauifenesin DC
Description: Due to this effect the testing of the dissolution rate is achieved by first making a mock-up of the finished product. By doing so the suitability of the phenylephrine beads was determined more accurately. Direct specifications for dissolution were determined once data was collected to accurately predict this rate change.

COc1ccccc1OCC(O)CO (centres unmarked) [Guaifenesin, 3(2-methoxyphenoxy)-1,2-propanediol]
solubility [1]: soluble in water and alcohol

CNC[C@H](O)c1cccc(O)c1 [phenylephrine]
dissolution rate [2]: accelerated
